Measurements: patent US6046329A, “Uracil derivatives” (Byk Gulden Lomberg Chemische Fabrik GmbH, priority 1994, dated 2000)

Experiments:
[1] = molecular target: T1, α1A receptor (Rattus norvegicus, UniProt P43140); test: Radioligand binding with [3H]prazosine, affinity for α1A receptor subtype; conditions: membranes from rat brain cortex, IC50 corrected according to Cheng and Prusoff, read-out: Receptor affinity α1A, expressed in pKI values (converted)
T1 construct: membranes from rat brain cortex; from tissue; host or cells: rat brain cortex membranes
T1 sequence (P43140 1-466): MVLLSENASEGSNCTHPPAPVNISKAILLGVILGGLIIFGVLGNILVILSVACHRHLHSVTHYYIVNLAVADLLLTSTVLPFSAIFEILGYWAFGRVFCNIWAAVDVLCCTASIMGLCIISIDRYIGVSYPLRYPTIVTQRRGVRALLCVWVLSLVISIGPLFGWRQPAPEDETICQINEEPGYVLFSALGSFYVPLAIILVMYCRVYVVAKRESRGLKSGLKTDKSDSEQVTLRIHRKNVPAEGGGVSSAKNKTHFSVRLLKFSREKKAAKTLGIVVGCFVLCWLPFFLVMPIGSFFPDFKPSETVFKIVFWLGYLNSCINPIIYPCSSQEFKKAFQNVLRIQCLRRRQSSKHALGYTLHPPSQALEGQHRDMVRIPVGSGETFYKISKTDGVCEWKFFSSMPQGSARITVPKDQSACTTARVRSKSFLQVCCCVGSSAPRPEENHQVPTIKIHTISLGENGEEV
Experimental: (§1) The affinity of substances for α1 receptor subtypes was determined in radioligand binding studies using [^3 H]prazosine as a radioligand. 50-200 μg of membranes from rat brain cortex were incubated in a total volume of 0.5-1 ml with [^3 H]prazosine (0.2 to 0.5 nmol/l) in the presence of rising concentrations of substances. The incubation buffer used was 50 mmol/l tris/HCl pH 7.5, 1 mmol/l EDTA, 0.1 mmol/l PMSF. The nonspecific binding was determined in separate batches in the presence of 10 μmol/l of phentolamine or 1 μmol/l of prazosine. After 1 h at 37° C., the bound radioactivity was separated from the free radioactivity by rapid filtration of the incubation batch at 0° C. through glass fiber filters. The filters were washed twice with 3.5 ml each of cold filtration buffer (50 mmol/l tris/HCl pH 7.4, 10 mmol/l MgCl2, 10% polyethylene glycol 6000). The filter-bound radioactivity was determined by liquid scintillation counting. Substances with subtype selectivity for the α1 receptor subtypes were tested again in the presence of 3 nmol/l of WB 4101. WB4101 blocks the binding of [^3 H]prazosine to the α1A receptor subtype and the remaining binding corresponds to that to the α1B receptor.
(§2) For each substance, dose-response curves were plotted by means of nonlinear regression using the Inplot program (GraphPad, Sorento, Calif., USA). IC50 values were corrected by the concentration of the radioligand employed according to the formula of Cheng and Prusoff. The resulting KI values (see following table) represent the affinity of the respective substance for the tested receptor. The compounds according to the invention investigated according to the model illustrated in greater detail above have been provided in the following table with numbers which correspond to the numbers of these compounds in the examples.

[2] = molecular target: T2, α1B receptor (Rattus norvegicus, UniProt P15823); test: Radioligand binding with [3H]prazosine (in the presence of WB 4101), affinity for α1B receptor subtype; conditions: membranes from rat brain cortex, subtype-selective substances tested again in the presence of 3 nmol/l WB 4101, Cheng and Prusoff, read-out: Receptor affinity α1B, expressed in pKI values (converted)
T2 construct: membranes from rat brain cortex; from tissue; host or cells: rat brain cortex membranes
T2 sequence (P15823 1-515): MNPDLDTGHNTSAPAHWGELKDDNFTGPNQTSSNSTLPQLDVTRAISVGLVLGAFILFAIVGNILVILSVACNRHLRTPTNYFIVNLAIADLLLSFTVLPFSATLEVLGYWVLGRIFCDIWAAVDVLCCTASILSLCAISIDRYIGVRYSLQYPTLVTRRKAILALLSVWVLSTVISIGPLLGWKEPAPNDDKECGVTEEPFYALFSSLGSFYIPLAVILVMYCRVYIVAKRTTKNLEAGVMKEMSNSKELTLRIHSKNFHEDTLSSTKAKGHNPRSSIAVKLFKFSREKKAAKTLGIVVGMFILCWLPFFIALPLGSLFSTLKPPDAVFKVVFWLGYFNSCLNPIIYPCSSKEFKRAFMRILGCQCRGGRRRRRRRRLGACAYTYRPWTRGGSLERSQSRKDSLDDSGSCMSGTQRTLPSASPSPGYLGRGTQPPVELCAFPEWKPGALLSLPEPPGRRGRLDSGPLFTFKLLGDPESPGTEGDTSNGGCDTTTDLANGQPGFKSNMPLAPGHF
Experimental: as §1, §2

[3] = molecular target: T3, 5-HT1A receptor (Sus scrofa, UniProt A0A4X1UTF5); test: Radioligand binding with [3H]8-OH-DPAT, affinity for 5-HT1A receptor; conditions: membranes from pig brain cortex, IC50 corrected according to Cheng and Prusoff, read-out: Receptor affinity 5-HT1A, expressed in pKI values (converted)
T3 construct: membranes from pig brain cortex; from tissue; host or cells: pig brain cortex membranes
T3 sequence (A0A4X1UTF5 1-422): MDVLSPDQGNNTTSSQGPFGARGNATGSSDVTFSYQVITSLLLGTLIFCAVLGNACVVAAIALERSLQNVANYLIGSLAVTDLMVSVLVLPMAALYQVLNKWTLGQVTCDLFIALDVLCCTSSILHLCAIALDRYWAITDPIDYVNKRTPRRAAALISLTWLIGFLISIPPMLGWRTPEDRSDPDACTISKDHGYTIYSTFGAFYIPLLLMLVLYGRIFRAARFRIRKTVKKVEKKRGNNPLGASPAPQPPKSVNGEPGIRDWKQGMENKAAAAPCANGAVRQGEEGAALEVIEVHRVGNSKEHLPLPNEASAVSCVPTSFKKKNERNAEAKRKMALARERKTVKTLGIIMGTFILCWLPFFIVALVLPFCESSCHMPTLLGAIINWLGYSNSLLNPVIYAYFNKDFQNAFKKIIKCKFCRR
Experimental: The affinity of substances for the 5-HT1A receptor was determined in radioligand binding studies using [^3 H]8-OH-DPAT as a radioligand. 50-150 μg of membranes from pig brain cortex were incubated in a total volume of 0.25-0.5 ml with [^3 H]8-OH-DPAT (0.2 to 0.4 nmol/l) in the presence of rising concentrations of substances. The incubation buffer used was 50 mmol/l tris/HCl pH 8.2, 1 mmol/l MnCl2. The nonspecific binding was determined in separate batches in the presence of 10 μmol/l of 5-HT. After 30 min at 23° C., the bound radioactivity was separated from the free radioactivity by rapid filtration of the incubation batch at 0° C. through glass fiber filters. The filters were washed twice with 3.5 ml each of cold filtration buffer (50 mmol/l tris/HCl pH 7.4, 10 mmol/l MgCl2, 10% polyethylene glycol 6000). The filter-bound radioactivity was determined by liquid scintillation counting.
as §2

## COc1ccccc1N1CCN(CCCNc2c(OC)c(=O)n(C)c(=O)n2C)CC1 [Compound 17]
[1]
  Ki: 0.0501 µM
[2]
  Ki: 0.0501 µM
[3]
  Ki: 0.00251 µM

## COc1ccccc1N1CCN(CCCNC2=CC(=O)N(C)S(=O)(=O)N2C)CC1 [Compound 18, 5-{3-[4-(2-Methoxyphenyl)piperazin-1-yl]-propylamino}-2,6-dimethyl-1,1-dioxo-6H-[1,2,6]thiadiazin-3-one]
[1]
  Ki: 0.00631 µM
[2]
  Ki: 0.126 µM
[3]
  Ki: 0.0158 µM

## COc1ccccc1N1CCN(CCCNc2cc(=S)n(C)c(=O)n2C)CC1 [Compound 19, 6-{3-[4-(2-Methoxyphenyl)piperazin-1-yl]-propylamino}-1,3-dimethyl-4-thioxo-3,4-dihydro-1H-pyrimidin-2-one]
[1]
  Ki: 0.0316 µM
[2]
  Ki: 0.0316 µM
[3]
  Ki: 0.01 µM

## COc1cc(N)ccc1N1CCN(CCCNc2c(C)c(=O)n(C)c(=O)n2C)CC1 [Compound 20, 1,3,5-Trimethyl-6-[[3-[4-(4-amino-2-methoxyphenyl)-1-piperazinyl]propyl]amino]-2,4(1H,3H)-pyrimidinedione]
[1]
  Ki: 0.1 µM
[2]
  Ki: 6.31 µM
[3]
  Ki: 0.002 µM

## COc1cc(NC(C)=O)ccc1N1CCN(CCCNc2c(C)c(=O)n(C)c(=O)n2C)CC1 [Compound 21, 1,3,5-Trimethyl-6-[[3-[4-(4-acetylamino-2-methoxyphenyl)-1-piperazinyl]propyl]amino]-2,4(1H,3H)pyrimidinedione]
[1]
  Ki: > 10 µM
[2]
  Ki: > 10 µM
[3]
  Ki: 0.00501 µM
